These results are taken from US20230167073A1 (Teijin Pharma Limited, priority 2020, published 2023).

For this assay, the target named is T1, Human TRPC6 (Homo sapiens, UniProt Q9Y210).
T1 construct: expressed in transfected cells
T1 sequence (Q9Y210 1-931): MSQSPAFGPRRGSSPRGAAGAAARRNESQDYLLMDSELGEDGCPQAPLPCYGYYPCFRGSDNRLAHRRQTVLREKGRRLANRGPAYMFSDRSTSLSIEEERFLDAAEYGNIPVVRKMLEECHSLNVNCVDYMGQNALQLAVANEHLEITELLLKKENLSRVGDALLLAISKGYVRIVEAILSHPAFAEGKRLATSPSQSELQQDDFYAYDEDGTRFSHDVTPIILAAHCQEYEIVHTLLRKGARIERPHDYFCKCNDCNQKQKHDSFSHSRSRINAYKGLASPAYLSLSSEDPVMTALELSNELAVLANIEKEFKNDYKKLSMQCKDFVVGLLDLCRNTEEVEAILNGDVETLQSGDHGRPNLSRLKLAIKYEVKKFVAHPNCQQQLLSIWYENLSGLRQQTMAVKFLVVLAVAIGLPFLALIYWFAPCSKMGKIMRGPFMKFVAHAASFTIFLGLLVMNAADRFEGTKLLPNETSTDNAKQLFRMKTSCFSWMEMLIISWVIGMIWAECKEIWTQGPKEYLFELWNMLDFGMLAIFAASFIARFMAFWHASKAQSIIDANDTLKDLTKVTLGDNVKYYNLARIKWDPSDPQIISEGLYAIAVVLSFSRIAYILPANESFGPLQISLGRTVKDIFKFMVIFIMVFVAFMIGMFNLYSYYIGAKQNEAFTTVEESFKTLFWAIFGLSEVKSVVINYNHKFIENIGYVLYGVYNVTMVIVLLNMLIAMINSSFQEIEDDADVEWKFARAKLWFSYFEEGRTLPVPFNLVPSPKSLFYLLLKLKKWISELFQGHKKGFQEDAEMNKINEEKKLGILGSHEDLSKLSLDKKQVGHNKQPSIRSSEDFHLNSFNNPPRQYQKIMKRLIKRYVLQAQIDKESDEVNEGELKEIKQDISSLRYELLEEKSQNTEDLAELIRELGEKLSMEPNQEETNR
Kind of assay: Evaluation of TRPC6 channel inhibitory activity (1), FLIPR Calcium 5 Assay Kit, OAG stimulation (Compound Nos. 1-1293). To be noted: Human TRPC6 stably-expressing cells, OAG 30 μM, FLIPR Calcium 5 Assay Kit; read-out: Inhibitory activity (pIC50 class) (converted). The assay is classed as cell-based. In short, it runs like this: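 The FLIPR signal is maximum fluorescence after 30 μM OAG minus minimum before compound, measured in a human TRPC6 stable line loaded with Calcium 5 dye. Compounds were preincubated 20 min. pIC50 came from four-parameter logistic fitting of inhibition rates and is given as symbol ranges.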
In the case of `Cc1scnc1-c1cc(Oc2cc(C#N)ccc2-c2ncc(CN)cn2)n(C)n1` [compound 963, 4-[5-(aminomethyl)pyrimidin-2-yl]-3-[2-methyl-5-(5-methyl-1,3-thiazol-4-yl)pyrazol-3-yl]oxybenzonitrile], the IC50 is less than 10 nM. Consider `CCN(CC)c1cc(C(=O)c2cc(C#N)ccc2-c2ncc(CN)cn2)n(C)n1` [compound 1061, 4-[5-(aminomethyl)pyrimidin-2-yl]-3-[5-(diethylamino)-2-methylpyrazole-3-carbonyl]benzonitrile], for which the IC50 is less than 10 nM.

Turning to `Cn1nc(-c2ccncn2)cc1Oc1cc(C#N)ccc1-c1ncc(CN)cn1` [compound 932, 4-[5-(aminomethyl)pyrimidin-2-yl]-3-(2-methyl-5-pyrimidin-4-ylpyrazol-3-yl)oxybenzonitrile], the IC50 was less than 10 nM. Regarding `N#Cc1ccc(-c2ccc(CCN)cc2)c(Oc2cnnc(-c3ccccc3C#N)c2)c1` [Compound 93, 4-[4-(2-aminoethyl)phenyl]-3-[6-(2-cyanophenyl)pyridazin-4-yl]oxybenzonitrile], the IC50 was less than 10 nM.

With `Cc1c(C(=O)c2cc(C#N)ccc2-c2ncc(CN)cn2)cnn1CC1CC1` [compound 1036, 4-[5-(aminomethyl)pyrimidin-2-yl]-3-[1-(cyclopropylmethyl)-5-methylpyrazole-4-carbonyl]benzonitrile], the IC50 was more than 1000 nM.

Take `Cc1nc(Oc2cc(C#N)ccc2-c2ccc(C(CN)C(F)(F)F)cc2)cc(N2CCOCC2)n1` (stereo not drawn) [Compound 101, 4-[4-(3-amino-1,1,1-trifluoropropan-2-yl)phenyl]-3-(2-methyl-6-morpholin-4-ylpyrimidin-4-yl)oxybenzonitrile]: the IC50 was less than 10 nM. Consider `N#Cc1ccc(-c2ccc(CCN)cc2)c(Sc2cnnc(N3CCCC3)c2)c1` [compound 1241, 4-[4-(2-aminoethyl)phenyl]-3-(6-pyrrolidin-1-ylpyridazin-4-yl)sulfanylbenzonitrile], for which the IC50 is less than 10 nM. On to `Cc1cc(Oc2cc(C#N)ccc2-c2ncc(CCN)cn2)cc(N2CCO[C@H](C(F)F)C2)n1` [compound 439, 4-[5-(2-aminoethyl)pyrimidin-2-yl]-3-[2-[(2S)-2-(difluoromethyl)morpholin-4-yl]-6-methylpyridin-4-yl]oxybenzonitrile], for which the IC50 is less than 10 nM.

Consider `Cc1cc(Oc2cc(C#N)ccc2-n2ccc(C(O)CN)n2)cc(-c2ccccc2)n1` (stereo not drawn) [Compound 203, 4-[3-(2-amino-1-hydroxyethyl)pyrazol-1-yl]-3-(2-methyl-6-phenylpyridin-4-yl)oxybenzonitrile], for which the IC50 was 10 to 1000 nM. Take `Cc1ccccc1-c1cn(Cc2cc(C#N)ccc2-c2ccc(CCN)cn2)cn1` [compound 1145, 4-[5-(2-aminoethyl)pyridin-2-yl]-3-[[4-(2-methylphenyl)imidazol-1-yl]methyl]benzonitrile]: the IC50 is less than 10 nM. On to `CCN(CC)c1nnc(Oc2cc(C#N)ccc2-c2ncc(CCN)cn2)s1` [compound 724, 4-[5-(2-aminoethyl)pyrimidin-2-yl]-3-[[5-(diethylamino)-1,3,4-thiadiazol-2-yl]oxy]benzonitrile], for which the IC50 is less than 10 nM. For `Cc1cc(Oc2cc(C#N)ccc2-c2ccnc(OCCN)c2)cc(N2CCOCC2)n1` [compound 567, 4-[2-(2-aminoethoxy)pyridin-4-yl]-3-(2-methyl-6-morpholin-4-ylpyridin-4-yl)oxybenzonitrile], the IC50 was 10 to 1000 nM. For the molecule `Cc1cc(N2CCOCC2)cc(Oc2cc(C#N)ccc2-c2ccc(CCN)cc2)n1` [Compound 128, 4-[4-(2-aminoethyl)phenyl]-3-(6-methyl-4-morpholin-4-ylpyridin-2-yl)oxybenzonitrile], the IC50 is more than 1000 nM. With `Cc1sc(N2CCOCC2)nc1C(=O)c1cc(C#N)ccc1-c1ccc(CCN)cn1` [compound 1068, 4-[5-(2-aminoethyl)pyridin-2-yl]-3-(5-methyl-2-morpholin-4-yl-1,3-thiazole-4-carbonyl)benzonitrile], the IC50 was 10 to 1000 nM. Regarding `Cn1nc(C2CC2)cc1Oc1cc(C#N)ccc1-c1cnc(CCN)nc1` [compound 347, 4-[2-(2-aminoethyl)pyrimidin-5-yl]-3-(5-cyclopropyl-2-methylpyrazol-3 yl)oxybenzonitrile], the IC50 was more than 1000 nM. The figure for `N#Cc1ccc(-c2ccc(CCN)cc2)c(C(=O)c2cnnc(N3CCOCC3)c2)c1` [compound 1079, 4-[4-(2-aminoethyl)phenyl]-3-(6-morpholin-4-ylpyridazine-4-carbonyl)benzonitrile] is less than 10 nM; for `CC(C)NCc1cnc(-c2ccc(C#N)cc2Oc2cc(-c3ccccn3)nn2C)nc1` [compound 663, 3-(2-methyl-5-pyridin-2-ylpyrazol-3-yl)oxy-4-[5-[(propan-2-ylamino)methyl]pyrimidin-2-yl]benzonitrile] it is 10 to 1000 nM; for `N#Cc1ccc(-c2ncc(CCN)cn2)c(Oc2cnnc(N3CCCCC3)c2)c1` [compound 619, 4-[5-(2-aminoethyl)pyrimidin-2-yl]-3-(6-piperidin-1-ylpyridazin-4-yl)oxybenzonitrile] it is less than 10 nM. The figure for `Cc1nc(Sc2cc(C#N)ccc2-c2ccc(CCN)cn2)cc(N2CCCC2)n1` [compound 1250, 4-[5-(2-aminoethyl)pyridin-2-yl]-3-(2-methyl-6-pyrrolidin-1-ylpyrimidin-4-yl)sulfanylbenzonitrile] is 10 to 1000 nM; for `Cc1nc(Oc2cc(C#N)ccc2-n2cc([C@@H](O)CN)cn2)cc(N2CCC(C(F)(F)F)CC2)n1` [Compound 253, 4-[4-[(1R)-2-amino-1-hydroxyethyl]pyrazol-1-yl]-3-[2-methyl-6-[4-(trifluoromethyl)piperidin-1-yl]pyrimidin-4-yl]oxybenzonitrile] it is less than 10 nM; for `CC(C)Nc1cc(Sc2cc(C#N)ccc2-c2ncc(CN)cn2)cnn1` [compound 1272, 4-[5-(aminomethyl)pyrimidin-2-yl]-3-[6-(propan-2-ylamino)pyridazin-4-yl]sulfanylbenzonitrile] it is 10 to 1000 nM.

`Cc1cccc(-c2cn(Cc3cc(C#N)ccc3-c3ccc(CCN)cn3)c(C)n2)c1` [compound 1155, 4-[5-(2-aminoethyl)pyridin-2-yl]-3-[[2-methyl-4-(3-methylphenyl)imidazol-1-yl]methyl]benzonitrile]: the IC50 was less than 10 nM.

With `Cc1cc(Oc2cc(C#N)ccc2-c2ncc(CC(C)(C)N)cn2)cc(N2CCOCC2)n1` [compound 476, 4-[5-(2-amino-2-methylpropyl)pyrimidin-2-yl]-3-(2-methyl-6-morpholin-4-ylpyridin-4-yl)oxybenzonitrile], the IC50 was 10 to 1000 nM. With `Cc1c(Oc2cc(C#N)ccc2-c2ncc(CN)cn2)cnn1-c1ccccn1` [compound 831, 4-[5-(aminomethyl)pyrimidin-2-yl]-3-(5-methyl-1-pyridin-2-ylpyrazol-4-yl)oxybenzonitrile] the figure was more than 1000 nM. With `CN(C)c1cc(Cc2cc(C#N)ccc2-c2ccc(CCN)cn2)n(C)n1` [compound 1217, 4-[5-(2-aminoethyl)pyridin-2-yl]-3-[[5-(dimethylamino)-2-methylpyrazol-3-yl]methyl]benzonitrile], the IC50 was less than 10 nM. In the case of `N#Cc1ccc(-c2ccc(CCN)cc2)c(Oc2cnnc(-c3ccccc3F)c2)c1` [Compound 116, 4-[4-(2-aminoethyl)phenyl]-3-[6-(2-fluorophenyl)pyridazin-4-yl]oxybenzonitrile], the IC50 was 10 to 1000 nM. On to `Cn1nc(C2CC2)cc1Oc1cc(C#N)ccc1-c1cc(C(=O)N2CCC[C@@H](N)C2)ccn1` [compound 554, 4-[4-[(3R)-3-aminopiperidine-1-carbonyl]pyridin-2-yl]-3-(5-cyclopropyl-2-methylpyrazol-3-yl)oxybenzonitrile], for which the IC50 was more than 1000 nM. `CN(C)c1cc(Oc2cc(C#N)ccc2-c2ccc(CN)cn2)cnn1` [compound 698, 4-[5-(aminomethyl)pyridin-2-yl]-3-[6-(dimethylamino)pyridazin-4-yl]oxybenzonitrile]: the IC50 was 10 to 1000 nM. With `CCCc1cc(Oc2cc(C#N)ccc2-c2ncc(CN)cn2)n(C)n1` [compound 363, 4-[5-(aminomethyl)pyrimidin-2-yl]-3-(2-methyl-5-propylpyrazol-3-yl)oxybenzonitrile], the IC50 was less than 10 nM. As to `Cc1cc(Oc2cc(C#N)ccc2-c2ncc(CCN)cn2)cc(N2CC(F)C2)n1` [compound 503, 4-[5-(2-aminoethyl)pyrimidin-2-yl]-3-[2-(3-fluoroazetidin-1-yl)-6-methylpyridin-4-yl]oxybenzonitrile], the IC50 was less than 10 nM.
